Laboratory results published in ChEMBL document CHEMBL1124889, “Alfred Burger award address. Bioactive alkaloids. 4. Results of recent investigations with colchicine and physostigmine” (J Med Chem, 1990).

How the values were obtained:
Cholinesterase [1] = target: T1, Cholinesterase (Homo sapiens, UniProt P06276); assay: Inhibitory activity against Butyrylcholinesterase in plasma; format: cell-free
Cholinesterase [2] = target: T1, Cholinesterase; assay: Inhibitory activity against Butyrylcholinesterase in cortex; format: tissue-based
Acetylcholinesterase [3] = target: T2, Acetylcholinesterase (Homo sapiens, UniProt P22303); assay: Inhibitory activity against Acetylcholinesterase in cortex; format: tissue-based
Acetylcholinesterase [4] = target: T2, Acetylcholinesterase; assay: Inhibitory activity against Acetylcholinesterase in erythrocyte
Acetylcholinesterase [5] = target: Acetylcholinesterase (Electrophorus electricus, UniProt O42275); assay: Inhibitory activity against Acetylcholinesterase in electric eel
Chain of Acetylcholinesterase (Electrophorus electricus, UniProt O42275) (O42275 whole entry): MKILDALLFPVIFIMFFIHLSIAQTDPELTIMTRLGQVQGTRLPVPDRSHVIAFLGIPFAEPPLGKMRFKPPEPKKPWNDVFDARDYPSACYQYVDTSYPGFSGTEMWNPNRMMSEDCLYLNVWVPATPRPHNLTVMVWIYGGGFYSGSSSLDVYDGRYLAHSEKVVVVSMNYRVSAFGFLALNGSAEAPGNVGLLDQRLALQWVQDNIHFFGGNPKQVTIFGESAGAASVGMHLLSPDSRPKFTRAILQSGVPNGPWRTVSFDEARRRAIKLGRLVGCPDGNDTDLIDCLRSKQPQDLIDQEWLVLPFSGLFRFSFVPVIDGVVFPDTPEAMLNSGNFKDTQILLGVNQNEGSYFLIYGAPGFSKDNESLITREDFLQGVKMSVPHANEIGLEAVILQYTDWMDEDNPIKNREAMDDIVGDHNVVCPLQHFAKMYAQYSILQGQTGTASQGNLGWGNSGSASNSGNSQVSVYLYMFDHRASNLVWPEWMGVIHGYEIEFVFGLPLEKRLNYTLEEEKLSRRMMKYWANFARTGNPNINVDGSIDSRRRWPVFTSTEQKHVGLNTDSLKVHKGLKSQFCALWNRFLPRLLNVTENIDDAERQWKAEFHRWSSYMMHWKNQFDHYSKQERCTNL

T1 sequence (P06276 whole entry): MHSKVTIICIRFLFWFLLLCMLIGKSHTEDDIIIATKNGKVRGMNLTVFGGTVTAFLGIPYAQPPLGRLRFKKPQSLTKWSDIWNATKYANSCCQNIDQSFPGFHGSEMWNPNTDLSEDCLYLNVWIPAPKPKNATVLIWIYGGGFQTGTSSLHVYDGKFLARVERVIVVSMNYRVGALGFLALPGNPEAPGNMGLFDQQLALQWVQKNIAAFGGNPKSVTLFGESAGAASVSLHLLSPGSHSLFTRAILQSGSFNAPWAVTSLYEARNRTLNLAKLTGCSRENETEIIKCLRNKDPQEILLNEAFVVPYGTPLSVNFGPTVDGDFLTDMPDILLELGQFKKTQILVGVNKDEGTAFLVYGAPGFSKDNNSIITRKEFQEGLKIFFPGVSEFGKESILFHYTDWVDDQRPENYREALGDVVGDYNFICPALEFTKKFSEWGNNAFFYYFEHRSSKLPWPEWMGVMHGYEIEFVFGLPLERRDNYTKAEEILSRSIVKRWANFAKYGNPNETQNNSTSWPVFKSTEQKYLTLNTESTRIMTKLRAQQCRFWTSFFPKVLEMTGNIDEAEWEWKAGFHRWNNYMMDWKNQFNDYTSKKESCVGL
T2 sequence (P22303 whole entry): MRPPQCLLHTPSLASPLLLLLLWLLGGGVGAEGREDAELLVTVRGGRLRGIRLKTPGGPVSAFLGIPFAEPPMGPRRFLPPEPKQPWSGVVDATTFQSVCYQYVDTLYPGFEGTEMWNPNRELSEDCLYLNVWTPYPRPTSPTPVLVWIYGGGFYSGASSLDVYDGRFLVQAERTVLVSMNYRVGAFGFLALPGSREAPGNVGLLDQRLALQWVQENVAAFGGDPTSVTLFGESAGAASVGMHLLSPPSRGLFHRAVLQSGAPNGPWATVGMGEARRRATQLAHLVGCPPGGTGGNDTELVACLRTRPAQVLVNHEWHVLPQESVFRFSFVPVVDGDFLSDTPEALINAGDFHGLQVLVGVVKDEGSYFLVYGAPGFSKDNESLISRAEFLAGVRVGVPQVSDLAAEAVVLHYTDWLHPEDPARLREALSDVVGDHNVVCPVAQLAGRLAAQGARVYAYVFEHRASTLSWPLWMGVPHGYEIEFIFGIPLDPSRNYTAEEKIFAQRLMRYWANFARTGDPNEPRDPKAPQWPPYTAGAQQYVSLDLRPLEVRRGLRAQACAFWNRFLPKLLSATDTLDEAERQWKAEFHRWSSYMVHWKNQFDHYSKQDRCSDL

`CCCCCCCCNC(=O)Oc1ccc2c(c1)[C@]1(C)CCN(C)[C@@H]1N2C` was tested, and the IC50 (Cholinesterase [1]) was 4 nM and the IC50 (Cholinesterase [2]) was 9 nM.

`C=CCN1CC[C@@]2(C)c3cc(OC(=O)NC)ccc3N(C)[C@@H]12` was tested, and the IC50 (Cholinesterase [1]) was 3 nM and the IC50 (Cholinesterase [2]) was 16 nM.

With `CNC(=O)Oc1ccc2c(c1)[C@]1(C)CCN(CCc3ccccc3)[C@@H]1N2C` the IC50 (Acetylcholinesterase [3]) was 150 nM and the IC50 (Acetylcholinesterase [4]) was 220 nM.

`CN1CC[C@@]2(C)c3cc(OC(=O)NC(C)(C)C)ccc3N(C)[C@@H]12` gave an IC50 (Cholinesterase [1]) of 2000 nM, an IC50 (Acetylcholinesterase [5]) greater than 10000 nM and an IC50 (Cholinesterase [2]) of 11000 nM. The IC50 (Acetylcholinesterase [3]) was 32000 nM and the IC50 (Acetylcholinesterase [4]) was 23000 nM.

`COc1ccc(NC(=O)Oc2ccc3c(c2)[C@]2(C)CCN(C)[C@@H]2N3C)cc1` showed an IC50 (Cholinesterase [1]) of 71 nM, an IC50 (Acetylcholinesterase [5]) of 1700 nM and an IC50 (Cholinesterase [2]) of 230 nM.

For `CN(C)C(=O)Oc1ccc2c(c1)[C@]1(C)CCN(C)[C@@H]1N2C`, the IC50 (Cholinesterase [1]) was 420 nM, the IC50 (Acetylcholinesterase [5]) was 970 nM and the IC50 (Cholinesterase [2]) was 3000 nM. The IC50 (Acetylcholinesterase [3]) was 310 nM and the IC50 (Acetylcholinesterase [4]) was 210 nM.
